The text below walks through data of patent US9271978B2 (Zenith Epigenetics Corp., priority 2012, dated 2016).

For assay [1], the target named is T1, second bromodomain of Brd2 (BRD2(2)) (Homo sapiens, UniProt P25440).
T1 construct: made in house; host or cells: E. coli BL21 (DE3)
Kind of assay: Inhibition of tetra-acetylated histone H4 binding to Brd2 bromodomain 2 (TR-FRET). Details: key: Active: Compounds with an IC50 value less than 30 μM were deemed to be active.; Not Active: Compounds with an IC50 value less than 30 μM were deemed to be active. Conditions: tetra-acetylated histone H4 peptide, active = IC50 <30 μM. Here is the method: (§1) Proteins were cloned and overexpressed with a N-terminal 6×His tag, then purified by nickel affinity followed by size exclusion chromatography. Briefly, E. coli BL21 (DE3) cells were transformed with a recombinant expression vector encoding N-terminally Nickel affinity tagged bromodomains from Brd2, Brd3, Brd4. Cell cultures were incubated at 37° C. with shaking to the appropriate density and induced overnight with IPTG. The supernatant of lysed cells was loaded onto Ni-IDA column for purification. Eluted protein is pooled, concentrated and further purified by size exclusion chromatography. Fractions representing monomeric protein were pooled, concentrated, aliquoted, and frozen at −80° C. for use in subsequent experiments.
(§2) Binding of tetra-acetylated histone H4 and BET bromodomains was confirmed by a Time Resolved Fluorescence Resonance Energy Transfer (TR-FRET) method. N-terminally His-tagged bromodomains (200 nM) and biotinylated tetra-acetylated histone H4 peptide (25-50 nM, Millipore) were incubated in the presence of Europium Cryptate-labeled streptavidin (Cisbio Cat. #610SAKLB) and XL665-labeled monoclonal anti-His antibody (Cisbio Cat. #61HISXLB) in a white 96 well microtiter plate (Greiner). For inhibition assays, serially diluted test compound was added to these reactions in a 0.2% final concentration of DMSO. Final buffer concentrations were 30 mM HEPES pH 7.4, 30 mM NaCl, 0.3 mM CHAPS, 20 mM phosphate pH 7.0, 320 mM KF, 0.08% BSA). After a 2-h incubation at room temperature, the fluorescence by FRET was measured at 665 and 620 nm by a SynergyH4 plate reader (Biotek). Illustrative results with the first bromodomain of Brd4 and the second bromodomain of Brd2 are shown below. The binding inhibitory activity was shown by a decrease in 665 nm fluorescence relative to 620 nm. IC50 values were determined from a dose response curve.
In general terms: TR-FRET usually uses a lanthanide donor and a delayed reading to cut background.

Assay [2] deals with T2, Brd4 bromodomain 1 (BRD4(1)) (Homo sapiens, UniProt O60885).
T2 construct: Illustrative results with the first bromodomain of Brd4; made in house; host or cells: E. coli BL21 (DE3)
Kind of assay: Inhibition of tetra-acetylated histone H4 binding to Brd4 bromodomain 1 (TR-FRET). Also on record: key: Active: Compounds with an IC50 value less than 30 μM were deemed to be active.; Not Active: Compounds with an IC50 value less than 30 μM were deemed to be active. Conditions: tetra-acetylated histone H4 peptide, active = IC50 <30 μM. How it is done: as §1, §2

T1 sequence (P25440 344-453 limits assumed): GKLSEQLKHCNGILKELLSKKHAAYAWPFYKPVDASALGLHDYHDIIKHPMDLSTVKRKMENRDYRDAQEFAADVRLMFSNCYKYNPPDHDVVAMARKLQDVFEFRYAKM

Consider `Cc1noc(C)c1-c1ccc(=O)n([C@@H](C)c2ccc(F)cc2)c1` (single isomer, unassigned) [Example 110], for which, in assay [1], the “FRET activity (IC50 <30 μM) BRD2(2)” value is on record as “Active”. The “FRET activity (IC50 <30 μM) BRD4(1)” value in assay [2] was “Active”.

With `COc1cc(-c2ccc(=O)n(Cc3ccc(S(C)(=O)=O)cc3)n2)cc(OC)c1OC` [Example 116, 2-(4-(Methylsulfonyl)benzyl)-6-(3,4,5-trimethoxyphenyl)pyridazin-3(2H)-one], the “FRET activity (IC50 <30 μM) BRD2(2)” value in assay [1] is given as “Active”. In addition, the “FRET activity (IC50 <30 μM) BRD4(1)” value in assay [2] is “Active”.

Consider `Cc1noc(C)c1-c1ccc(=O)n(Cc2ccc(F)cc2Cl)c1` [Example 140, 1-(2-Chloro-4-fluorobenzyl)-5-(3,5-dimethylisoxazol-4-yl)pyridin-2(1H)-one], for which the “FRET activity (IC50 <30 μM) BRD2(2)” value in assay [1] is listed as “Active”. The “FRET activity (IC50 <30 μM) BRD4(1)” value in assay [2] is “Active”.

With `Cc1noc(C)c1Cn1cc(-c2c(C)noc2C)ccc1=O` [Example 11, 5-(3,5-Dimethylisoxazol-4-yl)-1-((3,5-dimethylisoxazol-4-yl)methyl)pyridin-2(1H)-one], in assay [1], the “FRET activity (IC50 <30 μM) BRD2(2)” value was “Active”. Moreover, the “FRET activity (IC50 <30 μM) BRD4(1)” value in assay [2] is “Active”.

In the case of `Cc1noc(C)c1-c1ccc(=O)n(S(=O)(=O)c2ccc(Cl)cc2)c1` [Example 150, 1-((4-Chlorophenyl)sulfonyl)-5-(3,5-dimethylisoxazol-4-yl)pyridin-2(1H)-one], the “FRET activity (IC50 <30 μM) BRD2(2)” value in assay [1] is “Not Active”. Besides, the “FRET activity (IC50 <30 μM) BRD4(1)” value in assay [2] is on record as “Active”.

With `Cc1noc(C)c1-c1ccc(=O)n(C(=O)c2ccc(F)cc2)c1` [Example 68, 5-(3,5-Dimethylisoxazol-4-yl)-1-(4-fluorobenzoyl)pyridin-2(1H)-one], the “FRET activity (IC50 <30 μM) BRD2(2)” value in assay [1] is recorded as “Active”. Moreover, the “FRET activity (IC50 <30 μM) BRD4(1)” value in assay [2] is reported as “Active”.

Consider `Cc1noc(C)c1Nc1ccc(=O)n(Cc2ccccc2)n1` [Example 61], for which the “FRET activity (IC50 <30 μM) BRD2(2)” value in assay [1] was “Active”. The “FRET activity (IC50 <30 μM) BRD4(1)” value in assay [2] was “Active”.

`Cc1noc(C)c1-c1ccc(=O)n(Cc2cnoc2)n1` [Example 97, 6-(3,5-Dimethylisoxazol-4-yl)-2-(isoxazol-4-ylmethyl)pyridazin-3(2H)-one]: in assay [1], the “FRET activity (IC50 <30 μM) BRD2(2)” value is reported as “Not Active”. Also, the “FRET activity (IC50 <30 μM) BRD4(1)” value in assay [2] is recorded as “Active”.

Take `Cc1noc(C)c1-c1ccc(=O)n(CC2CCNCC2)c1` [Example 10, 5-(3,5-Dimethylisoxazol-4-yl)-1-(piperidin-4-ylmethyl)pyridin-2(1H)-one hydrochloric acid]: the “FRET activity (IC50 <30 μM) BRD2(2)” value in assay [1] is “Active”. For the same molecule, in assay [2], the “FRET activity (IC50 <30 μM) BRD4(1)” value is “Active”.

As for `Cc1noc(C)c1-c1ccc(=O)n(Cc2cc(F)c(F)c(F)c2)n1` [Example 144, 6-(3,5-Dimethylisoxazol-4-yl)-2-(3,4,5-trifluorobenzyl)pyridazin-3(2H)-one], the “FRET activity (IC50 <30 μM) BRD2(2)” value in assay [1] is on record as “Active”. Also, the “FRET activity (IC50 <30 μM) BRD4(1)” value in assay [2] is reported as “Active”.

As to `Cc1noc(C)c1-c1ccc(=O)n(CC2CC2)n1` [Example 45, 2-(Cyclopropylmethyl)-6-(3,5-dimethylisoxazol-4-yl)pyridazin-3(2H)-one], the “FRET activity (IC50 <30 μM) BRD2(2)” value in assay [1] was “Active”. Moreover, the “FRET activity (IC50 <30 μM) BRD4(1)” value in assay [2] is reported as “Active”.

For the molecule `COc1cccc(Cn2nc(-c3c(C)noc3C)ccc2=O)c1` [Example 35, 6-(3,5-Dimethylisoxazol-4-yl)-2-(3-methoxybenzyl)pyridazin-3(2H)-one], the “FRET activity (IC50 <30 μM) BRD2(2)” value in assay [1] is listed as “Active”. Further, the “FRET activity (IC50 <30 μM) BRD4(1)” value in assay [2] is on record as “Active”.

Regarding `Cc1noc(C)c1-c1ccc(=O)n(CC2CCC2)n1` [Example 88, 2-(Cyclobutylmethyl)-6-(3,5-dimethylisoxazol-4-yl)pyridazin-3(2H)-one], the “FRET activity (IC50 <30 μM) BRD2(2)” value in assay [1] was “Active”. Also, the “FRET activity (IC50 <30 μM) BRD4(1)” value in assay [2] is given as “Active”.

In the case of `Cc1cc(=O)n(Cc2ccccc2)cc1-c1c(C)noc1C` [Example 12, 1-Benzyl-5-(3,5-dimethylisoxazol-4-yl)-4-methylpyridin-2(1H)-one], the “FRET activity (IC50 <30 μM) BRD2(2)” value in assay [1] is recorded as “Active”. Also, in assay [2], the “FRET activity (IC50 <30 μM) BRD4(1)” value is given as “Active”.

As for `Cc1noc(C)c1-c1ccc(=O)n(CC2CCOCC2)n1` [Example 37, 6-(3,5-Dimethylisoxazol-4-yl)-2-((tetrahydro-2H-pyran-4-yl)methyl)pyridazin-3(2H)-one], in assay [1], the “FRET activity (IC50 <30 μM) BRD2(2)” value is “Active”. Also, in assay [2], the “FRET activity (IC50 <30 μM) BRD4(1)” value is on record as “Active”.

In the case of `O=c1ccc(-c2cncs2)cn1Cc1ccccc1` [Example 80, 1-Benzyl-5-(thiazol-5-yl)pyridin-2(1H)-one], the “FRET activity (IC50 <30 μM) BRD2(2)” value in assay [1] is on record as “Active”. In addition, in assay [2], the “FRET activity (IC50 <30 μM) BRD4(1)” value is reported as “Not Active”.

As for `Cc1noc(C)c1-c1ccc(=O)n(Cc2ccc(CN(C)C)cc2)c1` [Example 9, 1-(4-((Dimethylamino)methyl)benzyl)-5-(3,5-dimethylisoxazol-4-yl)pyridin-2(1H)-one hydrochloric acid], the “FRET activity (IC50 <30 μM) BRD2(2)” value in assay [1] was “Active”. Moreover, the “FRET activity (IC50 <30 μM) BRD4(1)” value in assay [2] is on record as “Active”.

With `COc1ccc(-c2nn(Cc3ccccc3)c(=O)c3ccccc23)c(OC)c1OC` [Example 177, 2-Benzyl-4-(2,3,4-trimethoxyphenyl)phthalazin-1(2H)-one], the “FRET activity (IC50 <30 μM) BRD2(2)” value in assay [1] is reported as “Active”. Moreover, the “FRET activity (IC50 <30 μM) BRD4(1)” value in assay [2] is “Active”.

For `O=c1ccc(-c2cnsc2)cn1Cc1ccccc1` [Example 59, 1-Benzyl-5-(isothiazol-4-yl)pyridin-2(1H)-one], the “FRET activity (IC50 <30 μM) BRD2(2)” value in assay [1] is on record as “Active”. Also, in assay [2], the “FRET activity (IC50 <30 μM) BRD4(1)” value is “Not Active”.

`Cc1noc(C)c1-c1cc(C2CC2)c(=O)n(Cc2ccccc2)c1` [Example 67, 1-Benzyl-3-cyclopropyl-5-(3,5-dimethylisoxazol-4-yl)pyridin-2(1H)-one]: in assay [1], the “FRET activity (IC50 <30 μM) BRD2(2)” value is given as “Active”. In assay [2], the “FRET activity (IC50 <30 μM) BRD4(1)” value was “Active”.

Take `Cc1noc(C)c1-c1ccc(=O)n(Cc2cccc(Cl)c2)n1` [Example 23, 2-(3-Chlorobenzyl)-6-(3,5-dimethylisoxazol-4-yl)pyridazin-3(2H)-one]: the “FRET activity (IC50 <30 μM) BRD2(2)” value in assay [1] was “Active”. For the same molecule, the “FRET activity (IC50 <30 μM) BRD4(1)” value in assay [2] is “Active”.

Take `Cc1noc(C)c1-c1cc(NCc2ccccc2)c(=O)n(Cc2ccccc2)c1` [Example 74, 1-Benzyl-3-(benzylamino)-5-(3,5-dimethylisoxazol-4-yl)pyridin-2(1H)-one]: in assay [1], the “FRET activity (IC50 <30 μM) BRD2(2)” value is on record as “Active”. The “FRET activity (IC50 <30 μM) BRD4(1)” value in assay [2] is given as “Active”.

For the molecule `Cc1noc(C)c1-c1cnc(=O)n(Cc2ccccc2)c1` [Example 8, 1-Benzyl-5-(3,5-dimethylisoxazol-4-yl)pyrimidin-2(1H)-one], the “FRET activity (IC50 <30 μM) BRD2(2)” value in assay [1] is “Active”. Moreover, the “FRET activity (IC50 <30 μM) BRD4(1)” value in assay [2] is on record as “Active”.

For `Cc1noc(C)c1-c1ccc(=O)n(Cc2ncccn2)n1` [Example 3, 6-(3,5-Dimethylisoxazol-4-yl)-2-(pyrimidin-2-ylmethyl)pyridazin-3(2H)-one], in assay [1], the “FRET activity (IC50 <30 μM) BRD2(2)” value is given as “Active”. In addition, in assay [2], the “FRET activity (IC50 <30 μM) BRD4(1)” value is “Not Active”.

As for `Cc1noc(C)c1-c1ccc(=O)n(Cc2ccc(OC(F)(F)F)cc2)n1` [Example 76, 6-(3,5-Dimethylisoxazol-4-yl)-2-(4-(trifluoromethoxy)benzyl)pyridazin-3(2H)-one], in assay [1], the “FRET activity (IC50 <30 μM) BRD2(2)” value is on record as “Active”. Moreover, in assay [2], the “FRET activity (IC50 <30 μM) BRD4(1)” value is reported as “Active”.

Take `Cc1oncc1-c1ccc(=O)n(Cc2ccccc2)c1` [Example 57, 1-Benzyl-5-(5-methylisoxazol-4-yl)pyridin-2(1H)-one]: in assay [1], the “FRET activity (IC50 <30 μM) BRD2(2)” value is “Active”. Besides, the “FRET activity (IC50 <30 μM) BRD4(1)” value in assay [2] was “Active”.

For the molecule `Cc1ccc(Cn2cc(-c3c(C)noc3C)ccc2=O)cc1` [Example 41, 5-(3,5-Dimethylisoxazol-4-yl)-1-(4-methylbenzyl)pyridin-2(1H)-one], the “FRET activity (IC50 <30 μM) BRD2(2)” value in assay [1] is listed as “Active”. Also, the “FRET activity (IC50 <30 μM) BRD4(1)” value in assay [2] is on record as “Active”.

As for `Cc1noc(C)c1-c1ccc(=O)n(Cc2ccc3nccnc3c2)c1` [Example 18, 5-(3,5-Dimethylisoxazol-4-yl)-1-(quinoxalin-6-ylmethyl)pyridin-2(1H)-one], in assay [1], the “FRET activity (IC50 <30 μM) BRD2(2)” value was “Active”. The “FRET activity (IC50 <30 μM) BRD4(1)” value in assay [2] is “Active”.
